Source: patent US20230373989A1, “N-PHENYLAMINOCARBONYL PYRIDINO-, PYRIMIDINO AND BENZO-TROPANES AS MODULATORS OF GPR65” (PATHIOS THERAPEUTICS LIMITED, priority 2020, published 2023)

target: T1, human recombinant GPR65 (Homo sapiens, UniProt Q8IYL9); assay: Human GPR65 cAMP HTRF antagonist assay; format: cell-based; conditions: not given
T1 construct: host or cells: 1321N1 human astrocytoma cells (1321N1-hrGPR65)
Summary of the method: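 1321N1 astrocytoma cells stably expressing GPR65 were preincubated with compound for 30 min at room temperature in KRH pH 7.6 with 1 mM IBMX and 200 μM EDTA. They were then stimulated at assay pH 7.2 for 30 min, with controls at pH 7.9. cAMP was read by HTRF (665/620 nm), normalised to controls and fitted by 4-parameter logistic to give IC50.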

T1 sequence (Q8IYL9 whole entry): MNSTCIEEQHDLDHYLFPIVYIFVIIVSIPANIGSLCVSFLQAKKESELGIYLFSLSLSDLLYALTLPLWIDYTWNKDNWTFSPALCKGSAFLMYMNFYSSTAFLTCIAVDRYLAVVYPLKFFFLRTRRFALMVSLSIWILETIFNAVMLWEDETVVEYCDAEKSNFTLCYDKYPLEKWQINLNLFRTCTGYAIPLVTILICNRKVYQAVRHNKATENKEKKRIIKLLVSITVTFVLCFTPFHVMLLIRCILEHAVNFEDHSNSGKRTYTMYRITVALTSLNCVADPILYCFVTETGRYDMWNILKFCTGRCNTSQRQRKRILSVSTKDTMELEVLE

Row | Structure (SMILES) | IC50
1 | O=C(Nc1ccc(Oc2ccccc2)cc1)N1[C@H]2CC[C@@H]1c1ccnc(F)c1C2 [Compound 185, (5R,8S)-1-Fluoro-N-(4-phenoxyphenyl)-6,7,8,9-tetrahydro-5H-5,8-epiminocyclohepta[c]pyridine-10-carboxamide] | < 500 nM
2 | O=C(Nc1ccc(Br)cc1)N1C2CCC1c1ccnc(F)c1C2 (racemic) [Compound 168, (±)-N-(4-Bromophenyl)-1-fluoro-6,7,8,9-tetrahydro-5H-5,8-epiminocyclohepta[c]pyridine-10-carboxamide] | < 500 nM
3 | O=C(Nc1ccc(C(F)(F)F)c(Cl)c1)N1C2CCC1c1cncnc1C2 (racemic) [Compound 2, (±)-N-(3-Chloro-4-(trifluoromethyl)phenyl)-6,7,8,9-tetrahydro-5H-5,8-epiminocyclohepta[d]pyrimidine-10-carboxamide] | < 500 nM
4 | O=C(Nc1ccc(Cl)c(Cl)c1)N1[C@H]2CC[C@@H]1c1ccnc(F)c1C2 [Compound 78, (5R,8S)-N-(3,4-Dichlorophenyl)-1-fluoro-6,7,8,9-tetrahydro-5H-5,8-epiminocyclohepta[c]pyridine-10-carboxamide] | < 500 nM
5 | O=C(Nc1ccc(Cl)c(Cl)c1)N1[C@H]2CC[C@@H]1c1c[nH]c(=O)cc1C2 [Compound 103, (6S,9R)-N-(3,4-Dichlorophenyl)-3-oxo-3,5,6,7,8,9-hexahydro-2H-6,9-epiminocyclohepta[c]pyridine-10-carboxamide] | < 500 nM
6 | O=C(Nc1ccc(F)c(Cl)c1)N1C2CCC1c1ccnc(F)c1C2 (racemic) [Compound 178, (±)-N-(3-Chloro-4-fluorophenyl)-1-fluoro-6,7,8,9-tetrahydro-5H-5,8-epiminocyclohepta[c]pyridine-10-carboxamide] | < 500 nM
7 | Cc1cc(Cl)c(Cl)cc1NC(=O)N1[C@H]2CC[C@@H]1c1ccnc(F)c1C2 [Compound 117, (5R,8S)-N-(4,5-Dichloro-2-methylphenyl)-1-fluoro-6,7,8,9-tetrahydro-5H-5,8-epiminocyclohepta[c]pyridine-10-carboxamide] | < 500 nM
8 | N#Cc1cc(NC(=O)N2[C@H]3CC[C@@H]2c2ccnc(F)c2C3)ccc1C(F)(F)F [Compound 151, (5R,8S)-N-(3-cyano-4-(trifluoromethyl)phenyl)-1-fluoro-6,7,8,9-tetrahydro-5H-5,8-epiminocyclohepta[c]pyridine-10-carboxamide] | < 500 nM
9 | O=C(Nc1ccc(Cl)c(Cl)c1)N1[C@H]2CC[C@@H]1c1cncnc1C2 [Compound 52, (5R,8S)-N-(3,4-Dichlorophenyl)-6,7,8,9-tetrahydro-5H-5,8-epiminocyclohepta[d]pyrimidine-10-carboxamide] | < 500 nM
10 | O=C(Nc1cc(Cl)c(C(F)(F)F)cc1F)N1C2CCC1c1ccc(=O)[nH]c1C2 (racemic) [Compound 189, (±)-N-(5-Chloro-2-fluoro-4-(trifluoromethyl)phenyl)-2-oxo-2,5,6,7,8,9-hexahydro-1H-5,8-epiminocyclohepta[b]pyridine-10-carboxamide] | < 500 nM
11 | O=C(Nc1ccc(-c2ccccc2)cc1)N1C2CCC1c1ccnc(F)c1C2 (racemic) [Compound 158, (±)-N-([1,1′-Biphenyl]-4-yl)-1-fluoro-6,7,8,9-tetrahydro-5H-5,8-epiminocyclohepta[c]pyridine-10-carboxamide] | < 500 nM
12 | O=C(Nc1ccc(Cl)c(Cl)c1)N1C2CCC1c1c[nH]c(=O)cc1C2 (racemic) [Compound 76, (±)-N-(3,4-Dichlorophenyl)-3-oxo-3,5,6,7,8,9-hexahydro-2H-6,9-epiminocyclohepta[c]pyridine-10-carboxamide] | < 500 nM
13 | O=C(Nc1cc(Cl)c(C(F)(F)F)cc1F)N1[C@H]2CC[C@@H]1c1c[nH]c(=O)c(F)c1C2 [Compound 146, (6S,9R)-N-(5-Chloro-2-fluoro-4-(trifluoromethyl)phenyl)-4-fluoro-3-oxo-3,5,6,7,8,9-hexahydro-2H-6,9-epiminocyclohepta[c]pyridine-10-carboxamide] | < 500 nM
14 | O=C(Nc1cccc(OC(F)(F)F)c1)N1C2CCC1c1ccnc(F)c1C2 (racemic) [Compound 171, (±)-1-Fluoro-N-(3-(trifluoromethoxy)phenyl)-6,7,8,9-tetrahydro-5H-5,8-epiminocyclohepta[c]pyridine-10-carboxamide] | < 500 nM
15 | C[C@H]1c2cnccc2[C@H]2CC[C@@H]1N2C(=O)Nc1ccc(Cl)c(Cl)c1 [Compound 134, (5R,8S,9S)-N-(3,4-Dichlorophenyl)-9-methyl-6,7,8,9-tetrahydro-5H-5,8-epiminocyclohepta[c]pyridine-10-carboxamide] | < 500 nM
16 | O=C(Nc1ccc(Cl)c(Cl)c1)N1[C@H]2CC[C@@H]1c1cnc(F)cc1C2 [Compound 91, (6S,9R)-N-(3,4-Dichlorophenyl)-3-fluoro-6,7,8,9-tetrahydro-5H-6.9-epiminocyclohepta[c]pyridine-10-carboxamide] | < 500 nM

same assay, conditions: 1321N1-hrGPR65 cells, assay pH 7.2, cAMP HTRF; read-out: hGPR65 IC50 (activity class)

Row | Structure (SMILES) | IC50
17 | O=C(Nc1ccc(Cl)c(C(F)(F)F)c1)N1C2CCC1c1ccccc1C2 (racemic) [Compound 55, (±)-N-(4-Chloro-3-(trifluoromethyl)phenyl)-6,7,8,9-tetrahydro-5H-5,8-epiminobenzo[7]annulene-10-carboxamide] | 500 to 5000 nM
18 | O=C(Nc1ccc(C(F)(F)F)c(Cl)c1)N1C2CCC1c1c[nH]c(=O)nc1C2=NO (racemic) [Compound 47, (±)-N-(3-Chloro-4-(trifluoromethyl)phenyl)-9-(hydroxyimino)-2-oxo-3,5,6,7,8,9-hexahydro-2H-5,8-epiminocyclohepta[d]pyrimidine-10-carboxamide] | 500 to 5000 nM
19 | O=C(Nc1ccc(Cl)c(Cl)c1)N1C2CCC1c1cccc(F)c1C2 (racemic) [Compound 83, (±)-N-(3,4-Dichlorophenyl)-1-fluoro-6,7,8,9-tetrahydro-5H-5,8-epiminobenzo[7]annulene-10-carboxamide] | 500 to 5000 nM
20 | O=C(Nc1ccc(Cl)c(Cl)c1)N1[C@@H]2CC[C@H]1c1ccncc1C2 [Compound 107, (5S,8R)-N-(3,4-Dichlorophenyl)-6,7,8,9-tetrahydro-5H-5,8-epiminocyclohepta[c]pyridine-10-carboxamide] | > 5000 nM
21 | O=C(Nc1ccc(Cl)c(Cl)c1)N1[C@@H]2CC[C@H]1[C@H](F)c1ncncc12 [Compound 115, (5R,8S,9S)-N-(3,4-Dichlorophenyl)-9-fluoro-6,7,8,9-tetrahydro-5H-5,8-epiminocyclohepta[d]pyrimidine-10-carboxamide] | 500 to 5000 nM
22 | O=C(Nc1ccc(-c2cnco2)cc1)N1[C@H]2CC[C@@H]1c1ccnc(F)c1C2 [Compound 188, (5R,8S)-1-Fluoro-N-(4-(oxazol-5-yl)phenyl)-6,7,8,9-tetrahydro-5H-5,8-epiminocyclohepta[c]pyridine-10-carboxamide] | 500 to 5000 nM
23 | N#Cc1cc(NC(=O)N2C3CCC2c2ccnc(F)c2C3)ccc1F (racemic) [Compound 165, (±)-N-(3-Cyano-4-fluorophenyl)-1-fluoro-6,7,8,9-tetrahydro-5H-5,8-epiminocyclohepta[c]pyridine-10-carboxamide] | 500 to 5000 nM
24 | COC(=O)c1ccc(NC(=O)N2[C@H]3CC[C@@H]2c2c[nH]c(=O)cc2C3)cc1Cl [Compound 130, Methyl 2-chloro-4-((6S,9R)-3-oxo-3,5,6,7,8,9-hexahydro-2H-6,9-epiminocyclohepta[c]pyridine-10-carboxamido)benzoate] | 500 to 5000 nM
25 | O=C(Nc1ccc(Cl)c(Cl)c1)N1C2CCC1c1cc(F)ccc1C2 (racemic) [Compound 80, (±)-N-(3,4-Dichlorophenyl)-3-fluoro-6,7,8,9-tetrahydro-5H-5,8-epiminobenzo[7]annulene-10-carboxamide] | 500 to 5000 nM
26 | O=C(Nc1ccc(Cl)c(Cl)c1)N1C2CCC1c1ccc(O)cc1C2 (racemic) [Compound 57, (±)-N-(3,4-Dichlorophenyl)-2-hydroxy-6,7,8,9-tetrahydro-5H-5,8-epiminobenzo[7]annulene-10-carboxamide] | 500 to 5000 nM
27 | O=C(Nc1cccc(F)c1)N1C2CCC1c1ccnc(F)c1C2 (racemic) [Compound 155, (±)-1-Fluoro-N-(3-fluorophenyl)-6,7,8,9-tetrahydro-5H-5,8-epiminocyclohepta[c]pyridine-10-carboxamide] | 500 to 5000 nM
28 | O=C(Nc1ccc(OC(F)F)cc1)N1C2CCC1c1ccnc(F)c1C2 (racemic) [Compound 169, (±)-N-(4-(Difluoromethoxy)phenyl)-1-fluoro-6,7,8,9-tetrahydro-5H-5,8-epiminocyclohepta[c]pyridine-10-carboxamide] | 500 to 5000 nM
29 | O=C(Nc1ccc(Cl)c(Cl)c1)N1C2CCC1c1cnc(C(F)(F)F)nc1C2 (racemic) [Compound 24, (±)-N-(3,4-Dichlorophenyl)-2-(trifluoromethyl)-6,7,8,9-tetrahydro-5H-5,8-epiminocyclohepta[d]pyrimidine-10-carboxamide] | > 5000 nM
30 | O=C(Nc1ccc(Cl)c(Cl)c1)N1C2CCC1c1cncc(F)c1C2 (racemic) [Compound 95, (±)-N-(3,4-Dichlorophenyl)-4-fluoro-6,7,8,9-tetrahydro-5H-6.9-epiminocyclohepta[c]pyridine-10-carboxamide] | 500 to 5000 nM
31 | O=C(Nc1cc(Cl)c(C(F)(F)F)cc1F)N1C2CCC1c1cnc(F)c(F)c1C2 (racemic) [Compound 136, (±)-N-(5-Chloro-2-fluoro-4-(trifluoromethyl)phenyl)-3,4-difluoro-6,7,8,9-tetrahydro-5H-6,9-epiminocyclohepta[c]pyridine-10-carboxamide] | 500 to 5000 nM
32 | O=C(Nc1ccc(Cl)c(Cl)c1)N1C2CCC1c1cnc(Br)cc1C2 (racemic) [Compound 99, (±)-3-Bromo-N-(3,4-dichlorophenyl)-6,7,8,9-tetrahydro-5H-6,9-epiminocyclohepta[c]pyridine-10-carboxamide] | > 5000 nM
